In patent US20220135622A1, “ANTIBACTERIAL PEPTIDES AND METHODS OF USE” (priority 2019, published 2022):
Values after ≈ are worked out from the molar mass of the structure shown. Where two headings read alike, the source gives them in different places. Square brackets hold non-standard residues; d marks the D form. Peptide text beside a SMILES is read from it. Bip = N[C@@H](Cc1ccc(-c2ccccc2)cc1)C(=O)O; aThr = C[C@H](O)[C@H](N)C(=O)O; NMeM = CN[C@@H](CCSC)C(=O)O; NMeA = CN[C@@H](C)C(=O)O; Orn = NCCC[C@H](N)C(=O)O; Dap = NC[C@H](N)C(=O)O

How the values were obtained:
E. coli ΔwaaD MCR-1 = experiment: MIC assay, E. coli ΔwaaD MCR-1; format: cell-based, Escherichia coli; settings: Table 7
Method: (§1) Bacterial growth conditions. LB or Mueller Hinton II cation-adjusted broth (MHB II, BBL 212322) was prepared according to manufacturer's instructions and supplemented with arabinose at 0.02% for overnight growth or at indicated concentrations in the description of the figures. Bacterial cultures were grown at 37° C. When appropriate, media was supplemented with kanamycin (50 μg/mL), carbenicillin (50 μg/mL), chloramphenicol (12.5 or 25 μg/mL), hygromycin (200 μg/mL), and/or gentamicin (10 μg/mL).
(§2) Peptide sensitivity and MIC assays. Lyophilized peptides (Smartox Biotechnology, CPC Scientific. ABclonal) were solubilized to 10 mM in Tris buffer, pH 8, prior to making a 2-fold dilution series in MHBII cation adjusted broth with highest final assay concentration of 400-800 μM. Bacteria were grown to log phase and added to final OD600˜0.001. The final EDTA concentration was 0.5 mM for E. coli strains and 0.125 mM for USA300. The final volume of 10 μL/well in a 384 well black, clear bottom plate (Corning) was spun <1 min at <250×g and then incubated at 37° C. After 4 h, an equal volume (10 μL) of BacTiter-Glo™ (Promega) was added to each well and luminescence was read after 5 min on an EnVision plate reader (PerkinElmer). To measure the minimal inhibitory concentrations (MICs), bacteria from fresh overnight plates or log phase cultures were diluted with or without EDTA and peptides as described above to final OD600˜0.0002. Plates were incubated at 37° C. for 20 h before measuring OD600 with an EnVision plate reader.

A. baumannii = format: cell-based, Acinetobacter baumannii; settings: Table 8
Outline: (§3)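 For MIC, bacteria (final OD600 ~0.0002) were incubated with 2-fold peptide dilutions (top 400–800 μM) in cation-adjusted MHB II with or without EDTA, 20 h at 37 °C, read by OD600. EDTA was 0.5 mM for E. coli and 0.125 mM for USA300. The growth-inhibition assay used log-phase cells at OD600 ~0.001, 4 h at 37 °C, BacTiter-Glo luminescence.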

K. pneumoniae = format: cell-based, Klebsiella pneumoniae; settings: Table 8
Outline: as §3

E. coli ΔwaaD + vect. = experiment: MIC assay, E. coli ΔwaaD + vect.; format: cell-based, Escherichia coli; settings: Table 7
Method: as §1, §2

S. aureus USA300 = experiment: MIC assay, S. aureus USA300; format: cell-based, Staphylococcus aureus; settings: Table 7
Method: as §1, §2

E. coli BW25113 = format: cell-based, Escherichia coli
Outline: as §3

P. aeruginosa = format: cell-based, Pseudomonas aeruginosa; settings: Table 8
Outline: as §3

E. coli imp4213 = experiment: MIC assay, E. coli imp4213; format: cell-based, Escherichia coli; settings: Table 7
Outline: as §3

Molecule | MIC E coli ΔwaaD − MCR1 (E. coli ΔwaaD MCR-1) | MIC A. baumannii (A. baumannii) [µM] | MIC K. pneumoniae (K. pneumoniae) [µM] | MIC E. coli ΔwaaD + vect. (E. coli ΔwaaD + vect.) | MIC S. aureus USA300 (S. aureus USA300) [µM] | MIC E. coli BW25113 (E. coli BW25113; Table 8) [µM] | MIC R. aeruginosa (P. aeruginosa) [µM] | MIC E. coli imp4213 (E. coli imp4213) [µM] | MIC E. coli BW25113 (E. coli BW25113; Table 7, no EDTA) [µM]
CSCC[C@H](NC(=O)[C@@H]1CCCN1C(=O)[C@H](Cc1ccc(O)cc1)NC(C)=O)C(=O)N[C@H](C(=O)N[C@@H](C)C(=O)N[C@@H](CCCN)C(=O)N[C@@H](CCCNC(=N)N)C(=O)N[C@@H](Cc1ccccc1)C(=O)N[C@@H](CC(C)C)C(=O)N[C@@H](CCC(=O)O)C(=O)N[C@@H](CCCCN)C(=O)N[C@@H](Cc1c[nH]c2ccccc12)C(=O)NCC(=O)N[C@@H](CC(C)C)C(=O)N[C@@H](CC(C)C)C(=O)N[C@@H](CCCNC(=N)N)C(N)=O)[C@@H](C)O [compound 53] (Ac-YPMTA[Orn]RFLEKWGLLR-NH2) | 400 µM (≈ 815 µg/mL) | 400 (≈ 815 µg/mL) | 800 (≈ 1630 µg/mL) | 100 µM | >400 | 400 (≈ 815 µg/mL) | 400 (≈ 815 µg/mL) | – | –
Ac-YPMNARRFLEKWGLLR-NH2 [compound 50] | 800/400 | 400 | 800 | 200 µM | >400 | 400 | 800 | 25 | –
CSCC[C@H](NC(=O)[C@@H]1CCCN1C(=O)[C@H](Cc1ccc(O)cc1)NC(C)=O)C(=O)N[C@H](C(=O)N[C@@H](C)C(=O)N[C@@H](CCCNC(=N)N)C(=O)N[C@@H](CCCNC(=N)N)C(=O)N[C@@H](Cc1ccc(-c2ccccc2)cc1)C(=O)N[C@@H](CC(C)C)C(=O)N[C@@H](CCC(=O)O)C(=O)N[C@@H](CCCCN)C(=O)N[C@@H](Cc1c[nH]c2ccccc12)C(=O)NCC(=O)N[C@@H](CC(C)C)C(=O)N[C@@H](CC(C)C)C(=O)N[C@@H](CCCNC(=N)N)C(N)=O)[C@@H](C)O [compound 55] (Ac-YPMTARR[Bip]LEKWGLLR-NH2) | 50 µM (≈ 108 µg/mL) | 25 (≈ 53.9 µg/mL) | 400 (≈ 862 µg/mL) | 25 µM | >400 | 100 (≈ 215 µg/mL) | >800 | 6.25 (≈ 13.5 µg/mL) | –
Ac-YPMTAQRFLEKWGLLR-NH2 [compound 54] | >800 µM | >800 | >800 | 100 µM | >400 | – | >800 | 100 | >400
Ac-YPMTARRFLAKWGLLR-NH2 [compound 57] | 100/700 | 100 | 400 | 100 µM | >400 | 200 | 200 | 12.5 | –
Ac-YPMSARRFLEKWGLLR-NH2 [compound 49] | 400 µM | 200 | 800 | 100 µM | >400 | 400 | 400 | 25 | –
Ac-YPMTARRFLEKWGL-NH2 [compound 44] | >800 µM | >800 | >800 | 200 µM | >800 | – | 800 | 100 | >400
CSCC[C@@H](C(=O)N[C@H](C(=O)N(C)[C@@H](C)C(=O)N[C@@H](CCCNC(=N)N)C(=O)N[C@@H](CCCNC(=N)N)C(=O)N[C@@H](Cc1ccccc1)C(=O)N[C@@H](CC(C)C)C(=O)N[C@@H](CCC(=O)O)C(=O)N[C@@H](CCCCN)C(=O)N[C@@H](Cc1c[nH]c2ccccc12)C(=O)NCC(=O)N[C@@H](CC(C)C)C(=O)N[C@@H](CC(C)C)C(=O)N[C@@H](CCCNC(=N)N)C(N)=O)[C@@H](C)O)N(C)C(=O)[C@@H]1CCCN1C(=O)[C@H](Cc1ccc(O)cc1)NC(C)=O [compound 65] (Ac-YP[NMeM]T[NMeA]RRFLEKWGLLR-NH2) | 100 µM (≈ 211 µg/mL) | 50 (≈ 105 µg/mL) | 200 (≈ 421 µg/mL) | <6.25 µM | 800 (≈ 1690 µg/mL) | 200 (≈ 421 µg/mL) | 800 (≈ 1690 µg/mL) | 12.5 (≈ 26.3 µg/mL) | –
CSCC[C@H](NC(=O)[C@@H]1CCCN1C(=O)[C@H](Cc1ccc(O)cc1)NC(C)=O)C(=O)N[C@H](C(=O)N[C@@H](C)C(=O)N[C@@H](CCCNC(=N)N)C(=O)N[C@@H](CCCNC(=N)N)C(=O)N[C@@H](Cc1ccccc1)C(=O)N[C@@H](CC(C)C)C(=O)N[C@@H](CCC(=O)O)C(=O)N[C@@H](CCCCN)C(=O)N[C@@H](Cc1c[nH]c2ccccc12)C(=O)NCC(=O)N[C@@H](CC(C)C)C(=O)N[C@@H](CC(C)C)C(=O)N[C@@H](CCCNC(=N)N)C(N)=O)[C@H](C)O [compound 48] (Ac-YPM[aThr]ARRFLEKWGLLR-NH2) | 400 µM (≈ 831 µg/mL) | 200 (≈ 416 µg/mL) | 400 (≈ 831 µg/mL) | 100 µM | >400 | 400 (≈ 831 µg/mL) | 400 (≈ 831 µg/mL) | 17.5 (≈ 36.4 µg/mL) | –
Ac-YPMTMRRFLEKWGLLR-NH2 [compound 58] | 50 µM | 25 | 400 | 50/25 | >400 | 400 | >800 | 12.5 | –
CSCC[C@H](NC(=O)[C@@H]1CCCN1C(=O)[C@H](Cc1ccc(O)cc1)NC(C)=O)C(=O)N[C@@H](CN)C(=O)N[C@@H](C)C(=O)N[C@@H](CCCNC(=N)N)C(=O)N[C@@H](CCCNC(=N)N)C(=O)N[C@@H](Cc1ccccc1)C(=O)N[C@@H](CC(C)C)C(=O)N[C@@H](CCC(=O)O)C(=O)N[C@@H](CCCCN)C(=O)N[C@@H](Cc1c[nH]c2ccccc12)C(=O)NCC(=O)N[C@@H](CC(C)C)C(=O)N[C@@H](CC(C)C)C(=O)N[C@@H](CCCNC(=N)N)C(N)=O [compound 51] (Ac-YPM[Dap]ARRFLEKWGLLR-NH2) | 200 µM (≈ 413 µg/mL) | 100 (≈ 206 µg/mL) | 200 (≈ 413 µg/mL) | 100 µM | >400 | 100 (≈ 206 µg/mL) | 400 (≈ 825 µg/mL) | 12.5 (≈ 25.8 µg/mL) | –
Ac-YPMTFRRFLEKWGLLR-NH2 [compound 59] | 50 µM | 50 | 800 | 25 µM | >400 | 400 | >800 | 12.5 | –
